Source: patent US9937183B2, “Antimicrobial compounds and methods of making and using the same” (priority 2013, dated 2018)
Values after ≈ are worked out from the molar mass of the structure shown. Like-named read-outs stand apart in the source and are kept apart here.

What was measured:
Type in all cases: cell-based
[1] = test system: S. pneumoniae 02J1175 Mef(A); test: MIC, microtiter-based liquid assay (CLSI); conditions: Streptococcus pneumoniae
P. aeruginosa 1705886 = test: MIC, microtiter-based liquid assay (CLSI); conditions: Pseudomonas aeruginosa
K. pneumoniae 1705949 = test: MIC, microtiter-based liquid assay (CLSI); conditions: Klebsiella pneumoniae, MDR strain
B. pseudomallei = test: microbe, parasite or virus in culture; conditions: Burkholderia pseudomallei; for MIC50: read-out: B. pseudomallei MIC50; for MIC90: read-out: B. pseudomallei MIC90; for MIC: read-out: B. pseudomallei MIC Range
F. tularensis = test: microbe, parasite or virus in culture; conditions: Francisella tularensis; for MIC50: read-out: F. tularensis MIC50; for MIC90: read-out: F. tularensis MIC90; for MIC: read-out: F. tularensis MIC Range
K. pneumoniae 1705966 = test: MIC, microtiter-based liquid assay (CLSI); conditions: Klebsiella pneumoniae
P. aeruginosa ATCC27853 = test: MIC, microtiter-based liquid assay (CLSI); conditions: Pseudomonas aeruginosa
[2] = test system: E. faecium A6349 VanA + LNZ-R; test: MIC, microtiter-based liquid assay (CLSI); conditions: Enterococcus faecium
E. coli 1705878 = test: MIC, microtiter-based liquid assay (CLSI); conditions: Escherichia coli, MDR strain
A. baumannii 1705936 = test: MIC, microtiter-based liquid assay (CLSI); conditions: Acinetobacter baumannii, MDR strain
B. mallei = test: microbe, parasite or virus in culture; conditions: Burkholderia mallei; for MIC50: read-out: B. mallei MIC50; for MIC90: read-out: B. mallei MIC90; for MIC: read-out: B. mallei MIC Range
Y. pestis = test: microbe, parasite or virus in culture; conditions: Yersinia pestis; for MIC50: read-out: Y. pestis MIC50; for MIC90: read-out: Y. pestis MIC90; for MIC: read-out: Y. pestis MIC Range
E. coli MG1655 parent = test: MIC, microtiter-based liquid assay (CLSI); conditions: Escherichia coli
S. aureus 11540 MRSA = test: MIC, microtiter-based liquid assay (CLSI); conditions: Staphylococcus aureus
A. baumannii 1705943 = test: MIC, microtiter-based liquid assay (CLSI); conditions: Acinetobacter baumannii
E. coli ATCC25922 = test: MIC, microtiter-based liquid assay (CLSI); conditions: Escherichia coli
B. anthracis = test: microbe, parasite or virus in culture; conditions: Bacillus anthracis; for MIC50: read-out: B. anthracis MIC50; for MIC90: read-out: B. anthracis MIC90; for MIC: read-out: B. anthracis MIC Range
P. aeruginosa 1705904 = test: MIC, microtiter-based liquid assay (CLSI); conditions: Pseudomonas aeruginosa, MDR strain
E. coli CAG12184 TolC = test: MIC, microtiter-based liquid assay (CLSI); conditions: Escherichia coli, CAG12184TOLC
[3] = ATCC25922, read-out: MIC E. coli ATCC25922 + 50% HS
[4] = ATCC25922, read-out: MIC E. coli ATCC25922

SMILES	MIC [1] [µg/mL]	MIC (P. aeruginosa 1705886) [µg/mL]	MIC (K. pneumoniae 1705949) [µg/mL]	MIC50 (B. pseudomallei) [µg/mL]	MIC90 (B. pseudomallei) [µg/mL]	MIC (B. pseudomallei) [µg/mL]	MIC50 (F. tularensis) [µg/mL]	MIC90 (F. tularensis) [µg/mL]	MIC (F. tularensis) [µg/mL]	MIC (K. pneumoniae 1705966) [µg/mL]	MIC (P. aeruginosa ATCC27853) [µg/mL]	MIC [2] [µg/mL]	MIC (E. coli 1705878) [µg/mL]	MIC (A. baumannii 1705936) [µg/mL]	MIC50 (B. mallei) [µg/mL]	MIC90 (B. mallei) [µg/mL]	MIC (B. mallei) [µg/mL]	MIC50 (Y. pestis) [µg/mL]	MIC90 (Y. pestis) [µg/mL]	MIC (Y. pestis) [µg/mL]	further results
C[C@H](N)CCCc1cc(-c2cc3cn(-c4ccc([C@H](C)NCCCNC(=N)N)cc4)c(=O)nc3[nH]2)c(F)c(Cl)c1F [Compound 12]	0.125 (≈ 0.214 µM)	2 (≈ 3.42 µM)	0.25 (≈ 0.427 µM)	4 (≈ 6.84 µM)	8 (≈ 13.7 µM)	0.5 to 16 (≈ 0.855 to 27.3 µM)	≤ 0.03	≤ 0.03	0.03 to 1 (≈ 0.0513 to 1.71 µM)	0.125 (≈ 0.214 µM)	4 (≈ 6.84 µM)	0.5	0.25 (≈ 0.427 µM)	2 (≈ 3.42 µM)	≤ 0.03	0.12 (≈ 0.205 µM)	0.03 to 0.25 (≈ 0.0513 to 0.427 µM)	0.12 (≈ 0.205 µM)	0.25 (≈ 0.427 µM)	0.03 to 0.5 (≈ 0.0513 to 0.855 µM)	MIC (E. coli MG1655 parent): 0.25 µg/mL (≈ 0.427 µM); MIC (S. aureus 11540 MRSA): 0.125 µg/mL (≈ 0.214 µM); MIC (A. baumannii 1705943): 0.25 µg/mL (≈ 0.427 µM); MIC (E. coli ATCC25922; [3]): 0.5 µg/mL; MIC (E. coli ATCC25922; [4]): 0.125 µg/mL (≈ 0.214 µM); MIC50 (B. anthracis): 0.06 µg/mL (≈ 0.103 µM); MIC90 (B. anthracis): 0.12 µg/mL (≈ 0.205 µM); MIC (B. anthracis): 0.03 to 0.25 µg/mL (≈ 0.0513 to 0.427 µM); MIC (P. aeruginosa 1705904): 4 µg/mL (≈ 6.84 µM); MIC (E. coli CAG12184 TolC): 0.125 µg/mL (≈ 0.214 µM)
C[C@H](N)CCCc1cc(-c2cc3cn(-c4ccc(CNCCCNC(=N)N)cc4)c(=O)nc3[nH]2)c(F)c(Cl)c1F [Compound 13]	0.25 (≈ 0.438 µM)	2 (≈ 3.5 µM)	0.5 (≈ 0.876 µM)	4 (≈ 7 µM)	8 (≈ 14 µM)	0.5 to 16 (≈ 0.876 to 28 µM)	≤ 0.03	≤ 0.03	0.03 to 0.5 (≈ 0.0525 to 0.876 µM)	0.25 (≈ 0.438 µM)	2 (≈ 3.5 µM)	0.5	0.25 (≈ 0.438 µM)	4 (≈ 7 µM)	≤ 0.03	0.06 (≈ 0.105 µM)	0.03 to 0.25 (≈ 0.0525 to 0.438 µM)	0.06 (≈ 0.105 µM)	0.12 (≈ 0.21 µM)	0.03 to 0.25 (≈ 0.0525 to 0.438 µM)	MIC (E. coli MG1655 parent): 0.25 µg/mL (≈ 0.438 µM); MIC (S. aureus 11540 MRSA): 0.25 µg/mL (≈ 0.438 µM); MIC (A. baumannii 1705943): 0.25 µg/mL (≈ 0.438 µM); MIC (E. coli ATCC25922; [3]): 0.25 µg/mL; MIC (E. coli ATCC25922; [4]): 0.25 µg/mL (≈ 0.438 µM); MIC50 (B. anthracis): ≤ 0.03 µg/mL; MIC90 (B. anthracis): 0.12 µg/mL (≈ 0.21 µM); MIC (B. anthracis): 0.03 to 0.12 µg/mL (≈ 0.0525 to 0.21 µM); MIC (P. aeruginosa 1705904): 4 µg/mL (≈ 7 µM); MIC (E. coli CAG12184 TolC): 0.25 µg/mL (≈ 0.438 µM)
C=CCC[C@H](NCCCNC(=N)N)c1ccc(-n2cc3cc(-c4cc(CCC[C@H](C)N)cc(Cl)c4F)[nH]c3nc2=O)cc1 [Compound 14]	0.5 (≈ 0.823 µM)	2 (≈ 3.29 µM)	1 (≈ 1.65 µM)	2 (≈ 3.29 µM)	4 (≈ 6.59 µM)	0.25 to 8 (≈ 0.412 to 13.2 µM)	0.06 (≈ 0.0988 µM)	0.25 (≈ 0.412 µM)	0.03 to 2 (≈ 0.0494 to 3.29 µM)	0.5 (≈ 0.823 µM)	4 (≈ 6.59 µM)	1	1 (≈ 1.65 µM)	0.5 (≈ 0.823 µM)	≤ 0.03	0.25 (≈ 0.412 µM)	0.03 to 0.5 (≈ 0.0494 to 0.823 µM)	0.12 (≈ 0.198 µM)	0.5 (≈ 0.823 µM)	0.03 to 0.5 (≈ 0.0494 to 0.823 µM)	MIC (E. coli MG1655 parent): 1 µg/mL (≈ 1.65 µM); MIC (S. aureus 11540 MRSA): 0.5 µg/mL (≈ 0.823 µM); MIC (A. baumannii 1705943): 0.5 µg/mL (≈ 0.823 µM); MIC (E. coli ATCC25922; [3]): 2 µg/mL; MIC (E. coli ATCC25922; [4]): 0.5 µg/mL (≈ 0.823 µM); MIC50 (B. anthracis): 0.25 µg/mL (≈ 0.412 µM); MIC90 (B. anthracis): 0.25 µg/mL (≈ 0.412 µM); MIC (B. anthracis): 0.03 to 0.5 µg/mL (≈ 0.0494 to 0.823 µM); MIC (P. aeruginosa 1705904): 4 µg/mL (≈ 6.59 µM); MIC (E. coli CAG12184 TolC): 0.5 µg/mL (≈ 0.823 µM)
C[C@H](N)CCCc1cc(Cl)c(F)c(-c2cc3cn(-c4ccc([C@H](CCNc5nccs5)NCCCNC(=N)N)cc4)c(=O)nc3[nH]2)c1 [Compound 15]	0.25 (≈ 0.368 µM)	4 (≈ 5.89 µM)	1 (≈ 1.47 µM)	8 (≈ 11.8 µM)	16 (≈ 23.6 µM)	4 to 32 (≈ 5.89 to 47.1 µM)	0.06 (≈ 0.0883 µM)	0.25 (≈ 0.368 µM)	0.03 to 2 (≈ 0.0442 to 2.94 µM)	0.25 (≈ 0.368 µM)	8 (≈ 11.8 µM)	2	2 (≈ 2.94 µM)	1 (≈ 1.47 µM)	0.06 (≈ 0.0883 µM)	0.25 (≈ 0.368 µM)	0.03 to 0.5 (≈ 0.0442 to 0.736 µM)	0.5 (≈ 0.736 µM)	1 (≈ 1.47 µM)	0.06 to 1 (≈ 0.0883 to 1.47 µM)	MIC (E. coli MG1655 parent): 1 µg/mL (≈ 1.47 µM); MIC (S. aureus 11540 MRSA): 0.5 µg/mL (≈ 0.736 µM); MIC (A. baumannii 1705943): 0.5 µg/mL (≈ 0.736 µM); MIC (E. coli ATCC25922; [3]): 0.5 µg/mL; MIC (E. coli ATCC25922; [4]): 0.5 µg/mL (≈ 0.736 µM); MIC50 (B. anthracis): 0.12 µg/mL (≈ 0.177 µM); MIC90 (B. anthracis): 0.12 µg/mL (≈ 0.177 µM); MIC (B. anthracis): 0.03 to 0.25 µg/mL (≈ 0.0442 to 0.368 µM); MIC (P. aeruginosa 1705904): 8 µg/mL (≈ 11.8 µM); MIC (E. coli CAG12184 TolC): 0.25 µg/mL (≈ 0.368 µM)
C[C@H](N)CCCc1cc(Cl)c(F)c(-c2cc3cn(-c4ccc([C@H](N)CCCCNC(=N)N)cc4)c(=O)nc3[nH]2)c1 [Compound 16]	0.25 (≈ 0.441 µM)	4 (≈ 7.05 µM)	2 (≈ 3.53 µM)	4 (≈ 7.05 µM)	8 (≈ 14.1 µM)	2 to 16 (≈ 3.53 to 28.2 µM)	≤ 0.03	0.12 (≈ 0.212 µM)	0.03 to 1 (≈ 0.0529 to 1.76 µM)	0.25 (≈ 0.441 µM)	4 (≈ 7.05 µM)	2	0.5 (≈ 0.882 µM)	2 (≈ 3.53 µM)	≤ 0.03	0.06 (≈ 0.106 µM)	0.03 to 0.06 (≈ 0.0529 to 0.106 µM)	0.12 (≈ 0.212 µM)	0.25 (≈ 0.441 µM)	0.03 to 0.5 (≈ 0.0529 to 0.882 µM)	MIC (E. coli MG1655 parent): 0.25 µg/mL (≈ 0.441 µM); MIC (S. aureus 11540 MRSA): 0.25 µg/mL (≈ 0.441 µM); MIC (A. baumannii 1705943): 0.125 µg/mL (≈ 0.22 µM); MIC (E. coli ATCC25922; [3]): 0.125 µg/mL; MIC (E. coli ATCC25922; [4]): 0.125 µg/mL (≈ 0.22 µM); MIC50 (B. anthracis): ≤ 0.03 µg/mL; MIC90 (B. anthracis): 0.06 µg/mL (≈ 0.106 µM); MIC (B. anthracis): 0.03 to 0.12 µg/mL (≈ 0.0529 to 0.212 µM); MIC (P. aeruginosa 1705904): 8 µg/mL (≈ 14.1 µM); MIC (E. coli CAG12184 TolC): 0.06 µg/mL (≈ 0.106 µM)
